Assay in all cases: NCI tumour cell line growth inhibition, 48 h
Test [1] has as its system MCF7 breast.
Test [2] deals with MDA-MB-435.
For test [3], the system named is T-47D breast.
Test [4] has as its system LOX IMVI melanoma.
Test [5] relates to COLO 205 colon.
Test [6] relates to MALME-3M melanoma.
Test [7] has as its system NCI-H522 lung.
Test [8] has as its system BT-549 breast.
The subject of test [9] is NCI-H460 lung.
In test [10] the test system is HOP-62 NSCLC.
Test [11] concerns SF-539 CNS.

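Where inhibition never reached the appropriate level, the endpoint shown equals the highest concentration tested. Otherwise, values were interpolated linearly from a five-concentration, 48-hour dose response in 96-well plates. TGI: concentration producing complete growth inhibition.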 Bounds are passed on as bounds.

With `Cc1cc(-c2nc3cc(F)c(F)cc3s2)ccc1N`, the TGI in [1], in test [2], in test [3], in test [4], in test [5] and in test [6] was above 100 µM in each case. Further, the TGI was above 100 µM in [7], above 100 µM in test [8], above 100 µM in [9] and above 71.3 µM in [10].

In the case of `Cn1cnc([N+](=O)[O-])c1Sc1nc(N)nc2c1ncn2Cc1ccccc1`, the TGI is above 100 µM in test [1]; 72.4 µM in test [2]; 40.9 µM in test [3]; 65.4 µM in test [4]; 32.1 µM in test [5]; 30.8 µM in [6]. Besides, the TGI in test [7] was 24.1 µM; in [8], 57.2 µM; in test [9], 34.7 µM; in test [10], 55.4 µM.

For the molecule `CCc1n[nH]c(=O)n1NC(=O)/C=C\C(=O)O`, the TGI in test [1], in [11], in test [2], in [3], in test [5] and in test [6] was above 100 µM throughout. In addition, the TGI in test [7], in test [8], in test [9] and in test [10] was above 100 µM throughout.

Turning to `Cc1cc(C#N)c(Nc2c(C)cccc2[N+](=O)[O-])s1`, the TGI was above 100 µM in test [11]; above 100 µM in test [2]; above 100 µM in [3]; above 100 µM in test [5]; 89.3 µM in test [6]; 73.6 µM in test [7]. For the same molecule, the TGI in test [8] was 80.6 µM; in test [9], above 100 µM; in [10], 75.2 µM.

In the case of `CC(C)(C)NC1C2CCC(C)(C1O)C2(C)C` (centres undefined), the TGI in test [1] was 14.7 µM; in test [11] it was above 100 µM; in test [2] it was above 100 µM; in [3], above 100 µM; in test [4] it was above 100 µM; in [5], above 100 µM. For the same molecule, the TGI in [6], in test [8], in test [9] and in test [10] was above 100 µM each time.

As to `CC1OC(OC2CC(O)(C(=O)CO)Cc3c(O)c4c(c(O)c32)C(=O)c2ccccc2C4=O)CC(N)C1O` (centres undefined), the TGI in test [11] is 0.121 µM; in test [2] it was 1.49 µM; in test [3] it was 0.134 µM; in test [4], 0.029 µM; in test [5] it was 0.139 µM; in [6], 0.0864 µM. Moreover, the TGI in test [7] was found to be 0.1 µM; in test [8] it was 4.03 µM; in test [9] it was 0.0366 µM; in test [10] it was 0.0782 µM.

`C=C(C(=O)O)[C@@H]1C[C@@H]2O[C@H]1CC(C)=CCC/C(C)=C/CC[C@@]2(C)O`: the TGI in test [1], in test [11], in [2], in [3], in test [4] and in test [5] was above 100 µM throughout. Besides, the TGI in test [6], in test [7], in test [8] and in [9] was above 100 µM in each case.

Turning to `CC1(C)OC(=S)N(c2ccccc2)C12C=Cc1cc3ccccc3cc1O2` (centres undefined), the TGI in test [1], in [2], in test [3], in test [4], in test [5] and in test [8] was above 100 µM each time. The TGI in test [9] and in [10] was above 100 µM in each case.

In the case of `CCN(CC)C1=Nc2ccccc2-n2c(C)cnc2C1`, the TGI in test [1], in test [11], in test [2], in [3], in [4] and in [5] was above 100 µM each time. Besides, the TGI in test [6], in test [7], in test [8] and in test [9] was above 100 µM in each case.

Take `N/N=C(\C(=O)Nc1ccc([N+](=O)[O-])cc1)C(C1=Nc2cc([N+](=O)[O-])ccc2NC1)[N+](=O)[O-]` (centres undefined): the TGI in test [1], in test [11], in test [2], in test [3], in test [4] and in test [6] was above 100 µM each time. Besides, the TGI in [7], in test [8], in test [9] and in test [10] was above 100 µM throughout.

Regarding `CN(C)/C=N/S(=O)(=O)c1nn2c(C=O)c(-c3ccc(-c4ccc([N+](=O)[O-])cc4)o3)nc2s1`, the TGI in test [1] is above 32.6 µM; in test [11], 11.8 µM; in [2] it was 7.41 µM; in [3], above 44.6 µM; in test [4], above 25 µM; in test [6], 4.15 µM. For the same molecule, the figures for the TGI in [8], in [9] and in [10] were 8.05 µM, 8.42 µM and 27.7 µM, respectively.

As for `CP(C)(=S)P(C)(C)=S`, the TGI in [1], in test [11], in test [3], in test [4], in test [5] and in [6] was above 100 µM each time. The TGI in [7], in [8], in test [9] and in test [10] was above 100 µM each time.

Take `O=C(/C(=C/c1cccs1)c1ccccc1)c1ccccc1`: the TGI was above 100 µM in test [1]; 87.6 µM in [11]; above 100 µM in test [2]; above 100 µM in [3]; above 100 µM in [4]; above 100 µM in [5]. In addition, the TGI is above 100 µM in [7], above 100 µM in [8], above 100 µM in test [9] and 58.2 µM in [10].

As to `O=C1O[C@H]2[C@@H]3OC(=O)c4cc(O)c(O)c(O)c4-c4c(cc(O)c(O)c4O)C(=O)OC[C@H]2O[C@@H](OC(=O)c2cc(O)c(O)c(O)c2)[C@@H]3OC(=O)c2cc(O)c(O)c3c2[C@@H]2C1=CC(=O)C(O)(O)C2(O)O3` (some centres undefined), the TGI in test [1] was 50.6 µM; in [2] it was 32.2 µM; in test [3] it was 90.7 µM; in test [4], 26.1 µM; in test [5] it was above 100 µM; in test [6] it was above 100 µM. Also, the TGI was 82.9 µM in [7], above 100 µM in test [8], above 100 µM in test [9] and above 100 µM in test [10].

Consider `CCCCCCCC/C=C/CCCCCCCC1CC(O)C(=O)O1` (centres undefined), for which the TGI in test [1], in [2], in [3], in [4], in test [5] and in [6] was above 100 µM each time. In addition, the TGI in test [8], in [9] and in [10] was above 100 µM throughout.

As to `NC(CCCCNC(=O)C(Cc1ccccc1)NC(=O)OCc1ccccc1)C(=O)NC(CCCCNC(=O)C(Cc1ccccc1)NC(=O)OCc1ccccc1)C(=O)NC(CCCCNC(=O)C(Cc1ccccc1)NC(=O)OCc1ccccc1)C(=O)NC(CCCCNC(=O)C(Cc1ccccc1)NC(=O)OCc1ccccc1)C(=O)NC(CCCCNC(=O)C(Cc1ccccc1)NC(=O)OCc1ccccc1)C(=O)NC(CCCCNC(=O)C(Cc1ccccc1)NC(=O)OCc1ccccc1)C(=O)O` (centres undefined), the TGI in test [1], in test [2], in [3], in [4], in test [6] and in test [7] was above 100 µM throughout. The TGI in [8], in [9] and in [10] was above 100 µM throughout.

For the molecule `CN(C(=O)c1cccs1)C(=S)N1CCN(c2ccccc2)CC1`, the TGI in test [1], in test [2], in [3], in test [4], in [5] and in test [6] was above 100 µM each time. For the same molecule, the TGI in test [7], in [8] and in test [9] was above 100 µM in each case.

For `COc1cc(OC)nc(Nc2c(C#N)c3nc4ccccc4n3c3ccccc23)n1`, the TGI in test [1] was above 100 µM; in [11] it was 35.1 µM; in test [2] it was above 100 µM; in [3], above 100 µM; in test [4] it was above 100 µM; in [5] it was above 100 µM. Further, the TGI in test [7] is 64 µM; in test [8] it was 63 µM; in [9] it was above 100 µM; in [10], 35 µM.

Take `[N-]=[N+]=NC1=C(c2ccccc2)C(=O)c2cccc3cccc1c23`: the TGI in [1] was above 100 µM; in test [11], 91.1 µM; in test [2], above 100 µM; in test [3], 82.1 µM; in test [4], above 100 µM; in test [5], above 100 µM. The TGI is above 100 µM in [6], 34.1 µM in test [8], 28.7 µM in [9] and 91.1 µM in [10].

As for `COc1cccc(-n2c(N)c(-c3nc4cc(C(F)(F)F)ccc4s3)c3ccc([N+](=O)[O-])cc3c2=O)c1`, the TGI in [1], in test [2], in test [3], in test [5], in test [6] and in test [7] was above 100 µM throughout. In addition, the TGI in test [8], in [9] and in [10] was above 100 µM throughout.

On to `CCCCOC(=O)C1CN2C(=NC1(C(F)(F)F)C(F)(F)F)Sc1ccccc12` (centres undefined), for which the TGI in [1], in test [11], in [3], in [4], in [5] and in test [6] was above 100 µM throughout. Besides, the TGI in test [8], in test [9] and in test [10] was above 100 µM throughout.

Turning to `CC(=O)OC1COC(Nn2c(=O)[nH]c3ccccc3c2=O)C(OC(C)=O)C1OC(C)=O` (centres undefined), the TGI in [1], in [11], in test [2], in test [3], in test [4] and in test [5] was above 100 µM each time. The TGI in [8], in test [9] and in test [10] was above 100 µM each time.

Take `N=c1oc2c(Cl)cc(Cl)cc2cc1C(=O)Nc1ccccn1`: the TGI in test [1], in test [11], in test [2], in test [3], in test [5] and in test [6] was above 100 µM throughout. Also, the TGI in [8], in test [9] and in test [10] was above 100 µM in each case.

Regarding `C[C@]12CCC(=O)C=C1CC[C@@H]1C2CC[C@]2(C)Nc3c(ncn3-c3ccc(F)cc3)CC12` (some centres undefined), the TGI in [1] was determined as 74 µM; in [11], 34.3 µM; in test [2], 42.5 µM; in [3], 88.7 µM; in test [5], 38.4 µM; in [6] it was 70.4 µM. Moreover, the TGI in test [7] is 55.1 µM; in test [8] it was 59.8 µM; in [9] it was 57.4 µM; in test [10], above 100 µM.

In the case of `N#CC(c1cc(Cl)ncn1)c1nc2ccccc2s1` (centres undefined), the TGI is 50.5 µM in [11]; 62 µM in [2]; above 100 µM in test [3]; 15.8 µM in test [4]; 57.6 µM in [5]; 24.6 µM in test [6]. Moreover, the TGI in [7] was 4.47 µM; in test [8] it was 15.2 µM; in [9], above 100 µM; in test [10], 43.8 µM.

For the molecule `c1ccc2c(c1)C(=Nc1ccc(N=C3c4ccccc4-c4ccccc43)cc1)c1ccccc1-2`, the TGI in test [1], in test [2], in test [3], in test [4], in test [5] and in test [6] was above 100 µM throughout. The TGI in test [7], in test [8], in test [9] and in test [10] was above 100 µM each time.
